# System: hypertension induced by angiotensin II
# Test: Decrease in blood pressure after intravenous administration, under i.v. infusion of angiotensin II
# Format: in vivo, tomcats
# Conditions: single dose, angiotensin II infusion 0.5 μg/kg/min, average of 6 experiments
# Protocol: The antagonistic activity of the compounds having the formula I was tested on tomcats. The blood pressure was measured on the cervical artery. The tests were performed by introducing a Hypertension (CIBA) infusion into a lateral femoral vane at a speed of 0.5 μg/kg/min. When the increase in blood pressure was stabilized, the aqueous, physiological or carrier-containing solutions of the test compounds and Saralasin were administered in a single dose, intravenously or subcutaneously, and the decrease in blood pressure was measured. In the Table 1 the decrease in the arterial blood pressure under the influence of an intravenous administration of the test compounds is illustrated. For comparision Saralasin is used. The data set forth in the Table 1 were obtained by calculating the average of the results of 6 experiments. The margins of error indicate the scatter of the main value.
Molecule,Decrease in blood pressure (mmHg) after administration of 10 μg/kg i.v. doses [mmHg],Decrease in blood pressure (mmHg) after administration of 20 /μg/kg i.v. doses (20 μg/kg i.v.) [mmHg]
"(Hydroxyacetyl^1,Thr(Me)^8)-angiotensin II [(Hydroxyacetyl^1,Thr(Me)^8)-AngII]",-33 ± 5.3,-38 ± 4.1
"CNCC(=O)N[C@@H](CCCN=C(N)N)C(=O)N[C@H](C(=O)N[C@@H](Cc1ccc(O)cc1)C(=O)N[C@H](C(=O)N[C@@H](Cc1cnc[nH]1)C(=O)N1CCC[C@H]1C(=O)N[C@@H](C)C(=O)O)C(C)C)C(C)C [Saralasin, reference compound]",-41 ± 2.5,

# Source: patent US4209442A, “Angiotensin II analogs and process for the preparation thereof” (Richter Gedeon Vegyeszeti Gyar Rt., priority 1977, dated 1980)
